Key:
[1] = tested on: phosphorylation of SR proteins; assay: Western blot of nuclear extracts, phosphor-SR proteins; settings: HCT116 and Rh18 cells, 4 h; SD6 10 μM, compound 1 10 μM, compound 2 5 μM, compound 3 10 μM
Description: (§5) HCT116 cells were seeded at 3 million cells per 100 mm culture plate. The next day cells were treated with 5 μM or 10 μM of each compound for 4h and 8h. […] The pellet was snap frozen on dry ice and then thawed and spun at 12K rpm for 5 min, 4C. The supernatant was collected (nuclear extract) and protein concentrations determined using BCA Protein Assay Kit. […] The proteins were transferred to PVDF membrane using a wet transfer system. […] After the secondary antibody incubation, membranes were washed 4X with PBS containing 0.1% Tween-20 and 1X with PBS before imaging using the Li-Cor Odyssey imaging system.
(§6) Lanes 6 to 10 are nuclear extracts from Rh18 cells.

phosphorylation of SF3B1 = assay: Western blot of nuclear extracts, phosphor-SF3B1; settings: HCT116 and Rh18 cells, 4 h; SD6 10 μM, compound 1 10 μM, compound 2 5 μM
Description: as §5, §6

SF3B1 = biological target: T1, SF3B1 (Homo sapiens, UniProt O75533+Q7RTV0); assay: Competitive antagonist assay (TESLR in the presence of SD6 or hit compound); type: cell-based; settings: 6 μM compound for one hour, then serial dilutions of sudemycinol C for another 4 hours
T1 construct: endogenous in cells
Description: SK-MEL-2/Luc-MDM2 stable cells were plated at a density of 20,000 cells/well in 96-well plates and incubated overnight at 37°C in 5% CO2.[27, 28] The following day, cells were treated with 14 analogs using serial dilution for one hour. The list of compounds screened as potential TESLR antagonists are show in SI file. After one-hour pre-treatment, 4 μM of SD6 were added to the pre-treated cells for another 4 hours. Either 0.5% DMSO or serial dilutions of SD6 were used to treat cells for 4 hours as controls. At the end of incubation time, ONE-Glo™ EX reagents (Promega) were added to measure the luciferase activity. […]
Fig 6 Competitive antagonist assay. (Left Panel) The assay that identified two antagonists of SD6 activity in the TESLR screen, which are useful for the determination of SF3B1 binding. Relative luminescent units were plotted against corresponding drug concentrations and fitted with a standard four parameter sigmoidal curve with GraphPad Prism. (Right Panel) The structures of the antagonists and SD6. See SI for chemistry details.
. SK-MEL-2/Luc-MDM2 stable cells were plated at a density of 20000/well in 96-well plates and incubated overnight at 37°C in 5% CO2. […]. After one-hour pre-treatment, serial dilutions of the sudemycinol C were added to the pre-treated cells for another 4 hours. […]. At the end of incubation time, ONE-Glo™ EX reagents (Promega) were added to measure the luciferase activity. […]. DR: dose response.

CLK2(h) = biological target: T2, CLK2(h) (Homo sapiens, UniProt P49760); assay: Radiometric protein kinase assay (Eurofins); type: biochemical; settings: ATP 10 μM
T2 construct: purchased Eurofins, Dundee, Scotland
T2 sequence (P49760 whole entry): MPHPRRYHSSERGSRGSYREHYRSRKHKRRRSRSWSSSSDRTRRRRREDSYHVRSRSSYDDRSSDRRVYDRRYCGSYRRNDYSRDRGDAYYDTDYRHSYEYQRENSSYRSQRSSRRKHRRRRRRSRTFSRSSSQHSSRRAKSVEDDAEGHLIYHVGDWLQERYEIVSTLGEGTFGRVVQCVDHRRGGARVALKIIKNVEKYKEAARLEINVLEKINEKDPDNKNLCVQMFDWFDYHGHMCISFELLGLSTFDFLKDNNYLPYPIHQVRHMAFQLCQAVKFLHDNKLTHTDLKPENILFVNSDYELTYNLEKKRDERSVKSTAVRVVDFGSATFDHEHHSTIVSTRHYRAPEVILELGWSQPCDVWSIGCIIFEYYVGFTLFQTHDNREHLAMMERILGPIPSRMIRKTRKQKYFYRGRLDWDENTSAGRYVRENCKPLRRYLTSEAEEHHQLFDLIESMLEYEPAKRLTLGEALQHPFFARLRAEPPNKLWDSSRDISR
Description: (§7) Enzymatic biochemical activities were evaluated in radiometric protein kinase assays (Eurofins, Dundee, Scotland). Kinases are incubated with buffer, substrate and [γ-^33P]-ATP (specific activity approx. 500 cpm/pmol, concentration as required). The reaction is initiated by the addition of the MgATP mix. After incubation for 40 minutes at room temperature, the reaction is stopped by the addition of 3% phosphoric acid solution. 10 μL of the reaction is then spotted onto a P30 filtermat and washed three times for 5 minutes in 75 mM phosphoric acid and once in methanol prior to drying and scintillation counting. All compounds are prepared to 50x final assay concentration in 100% DMSO. Positive control wells contain all components of the reaction with 2% DMSO. Blank wells contain all components of the reaction, with a reference inhibitor replacing the compound of interest. […] Compounds were screened at 1 μM in duplicate or tested at 10 concentrations at half log dilution starting from 10 μM in singlicate. Dose response curves were fitted with four parameter logistic curve to obtain IC50 values.

[2] = tested on: RBM39 pre-mRNA splicing in Rh18 cells; assay: RT-PCR confirmation of splicing changes, RBM39; type: cell-based; settings: 4 h, compound 1 10 μM, compound 2 5 μM
Description: (§1) RH-18 cells were cultured in RPMI 1640 medium containing 10% FCS. Cells are all maintained in humidified incubator with 5% CO2 at 37°C. Rh18 cells were exposed to 0.5% DMSO or SD6 10 μM, Cpd1 10 μM, Cpd2 5 μM or Cpd3 10 μM for 4 h. Total RNA was extracted and converted to cDNA. PCR was performed using NEB Q5 Master Mix and specific primers listed below (Table 2) according to the manufacturer’s instruction and standard PCR protocols: 50 ng cDNA and 30 μl of the final reaction volume was used. PCR products were subjected to 3% agarose gel electrophoresis.
(§2) AS patterns were identified with compound treatment for MDM2 and RBM39 transcripts. Ubiquitin (UBQ) transcripts were used as a control since these are not spliced. […] Rh18 cells were treated with either DMSO control or compounds for 4 h. Total RNA was extracted and converted to cDNA. PCR was performed using corresponding primers and PCR products were subjected to 3% agarose gel electrophoresis.

GSK3β(h) = biological target: T3, GSK3β(h) (Homo sapiens, UniProt P49841); assay: Radiometric protein kinase assay (Eurofins); type: biochemical; settings: 40 min; ATP 15 μM; read-out: GSK3β(h) IC50
T3 construct: purchased Eurofins, Dundee, Scotland
T3 sequence (P49841 whole entry): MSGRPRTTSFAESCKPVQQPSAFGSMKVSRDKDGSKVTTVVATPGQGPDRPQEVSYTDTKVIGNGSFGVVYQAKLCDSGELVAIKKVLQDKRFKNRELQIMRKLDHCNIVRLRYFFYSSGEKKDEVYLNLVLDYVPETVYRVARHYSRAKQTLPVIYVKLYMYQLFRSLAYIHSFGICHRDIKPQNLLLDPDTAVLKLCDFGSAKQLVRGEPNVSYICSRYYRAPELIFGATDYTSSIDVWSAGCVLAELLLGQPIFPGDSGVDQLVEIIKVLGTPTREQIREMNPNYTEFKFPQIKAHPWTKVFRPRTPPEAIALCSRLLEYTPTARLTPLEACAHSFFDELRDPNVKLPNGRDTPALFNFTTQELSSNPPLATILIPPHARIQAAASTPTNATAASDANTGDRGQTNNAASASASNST
Description: as §7

PYK2 (h) = biological target: T4, PYK2 (h) (Homo sapiens, UniProt Q14289); assay: Radiometric protein kinase assay (Eurofins); type: biochemical; settings: 40 min; ATP 90 μM; read-out: PYK2 IC50
T4 construct: purchased Eurofins, Dundee, Scotland
T4 sequence (Q14289 whole entry): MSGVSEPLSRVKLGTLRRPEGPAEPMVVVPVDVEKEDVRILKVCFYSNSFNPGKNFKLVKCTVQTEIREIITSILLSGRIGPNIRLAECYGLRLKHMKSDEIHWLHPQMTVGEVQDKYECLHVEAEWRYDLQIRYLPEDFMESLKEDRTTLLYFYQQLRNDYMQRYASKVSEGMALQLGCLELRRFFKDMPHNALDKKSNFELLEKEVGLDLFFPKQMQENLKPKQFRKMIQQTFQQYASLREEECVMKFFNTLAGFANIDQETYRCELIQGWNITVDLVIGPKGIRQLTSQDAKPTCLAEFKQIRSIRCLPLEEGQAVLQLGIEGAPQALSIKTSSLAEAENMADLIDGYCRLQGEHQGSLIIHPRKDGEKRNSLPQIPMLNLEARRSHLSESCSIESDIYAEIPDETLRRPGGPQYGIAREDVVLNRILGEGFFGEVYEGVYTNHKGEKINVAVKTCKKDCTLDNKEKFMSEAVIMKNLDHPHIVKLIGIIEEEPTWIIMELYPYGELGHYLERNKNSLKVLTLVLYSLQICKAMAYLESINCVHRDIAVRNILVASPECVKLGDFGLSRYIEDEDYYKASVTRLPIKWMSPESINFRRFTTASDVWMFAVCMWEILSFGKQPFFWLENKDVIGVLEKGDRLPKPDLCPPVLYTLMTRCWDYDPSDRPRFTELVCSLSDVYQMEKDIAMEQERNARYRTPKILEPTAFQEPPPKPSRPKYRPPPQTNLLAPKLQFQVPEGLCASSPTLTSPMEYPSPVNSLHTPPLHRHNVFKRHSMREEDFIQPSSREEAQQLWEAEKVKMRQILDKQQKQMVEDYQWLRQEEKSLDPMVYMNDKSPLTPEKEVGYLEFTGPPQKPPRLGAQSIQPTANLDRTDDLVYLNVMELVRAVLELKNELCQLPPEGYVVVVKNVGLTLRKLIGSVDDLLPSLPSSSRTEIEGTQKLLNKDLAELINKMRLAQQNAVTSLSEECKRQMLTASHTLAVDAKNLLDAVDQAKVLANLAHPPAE
Description: as §7

[3] = tested on: MDM2 pre-mRNA splicing in Rh18 cells; assay: RT-PCR confirmation of splicing changes, MDM2; type: cell-based; settings: 4 h, SD6 10 μM, compound 1 10 μM, compound 2 5 μM, compound 3 10 μM
Description: as §1, §2

[4] = tested on: triple-exon skipping of MDM2 pre-mRNA in SK-MEL-2/Luc-MDM2 cells; assay: TESLR (Triple Exon Skipping Luciferase Reporter) dose response; settings: Homo sapiens, SK-MEL-2, 4 h, read-out: TESLR EC50
Description: SK-MEL-2/MDM2-Luc stable cells were cultured in MEM medium with Earle's salts and L-glutamine containing 1 mM sodium pyruvate, 10% FCS and 10 mM Hepes and plated at a density of 10,000/well in 96-well plates and incubated overnight at 37°C in 5% CO2. The following day, cells were treated with serial dilutions of compounds for 4 hrs, ONE-Glo reagents (Promega) were added to measure the luciferase activity on an EnVision plate reader. SD6 and 0.5% DMSO were used as positive and negative controls, respectively. Relative luminescent units were plotted against corresponding drug concentrations and fitted with a standard four parameter sigmoidal curve with GraphPad Prism.
The TESLR assay in SK-MEL-2/Luc-MDM2 cells with 4 hour treatment. SK-MEL-2/Luc-MDM2 stable cells were plated at a density of 20,000 cells/well in 96-well plates and incubated overnight at 37°C in 5% CO2. The following day, cells were treated with either 0.5% DMSO or serial dilution of hits identified from the library screen in 0.5% DMSO for 4 hours. ONE-Glo™ EX reagent (Promega) was added to measure the luciferase activity using an EnVision plate reader. Relative luminescent units were plotted against corresponding drug concentrations and fitted with a standard four parameter sigmoidal curve with GraphPad Prism.
SK-MEL-2/Luc-MDM2 stable cells were plated at a density of 20,000 cells/well in 96-well plates and incubated overnight at 37°C in 5% CO2. The following day, cells were treated with serial dilutions of the indicated compounds for 4 hours and ONE-Glo™ EX reagents (Promega) were added to measure the luciferase activity.

GSK3α(h) = biological target: T5, GSK3α(h) (Homo sapiens, UniProt P49840); assay: Radiometric protein kinase assay (Eurofins); type: biochemical; settings: 40 min; ATP 10 μM; read-out: GSK3α(h) IC50
T5 construct: purchased Eurofins, Dundee, Scotland
T5 sequence (P49840 whole entry): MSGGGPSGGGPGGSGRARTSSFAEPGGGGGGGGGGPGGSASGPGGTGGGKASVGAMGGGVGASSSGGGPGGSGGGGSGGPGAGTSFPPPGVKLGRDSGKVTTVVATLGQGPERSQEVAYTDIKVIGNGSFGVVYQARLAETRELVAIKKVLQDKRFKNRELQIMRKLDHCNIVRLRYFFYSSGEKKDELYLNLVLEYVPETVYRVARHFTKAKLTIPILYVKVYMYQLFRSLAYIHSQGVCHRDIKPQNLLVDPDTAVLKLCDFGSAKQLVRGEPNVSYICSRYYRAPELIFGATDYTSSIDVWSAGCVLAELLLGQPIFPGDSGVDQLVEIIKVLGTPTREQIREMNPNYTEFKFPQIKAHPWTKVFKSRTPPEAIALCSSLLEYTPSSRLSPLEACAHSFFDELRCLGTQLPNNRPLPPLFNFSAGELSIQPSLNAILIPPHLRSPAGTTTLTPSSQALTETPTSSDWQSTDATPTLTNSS
Description: (§3) Enzymatic biochemical activities were evaluated in radiometric protein kinase assays (Eurofins, Dundee, Scotland). Kinases are incubated with buffer, substrate and [γ-^33P]-ATP (specific activity approx. 500 cpm/pmol, concentration as required). The reaction is initiated by the addition of the MgATP mix. After incubation for 40 minutes at room temperature, the reaction is stopped by the addition of 3% phosphoric acid solution. 10 μL of the reaction is then spotted onto a P30 filtermat and washed three times for 5 minutes in 75 mM phosphoric acid and once in methanol prior to drying and scintillation counting. All compounds are prepared to 50x final assay concentration in 100% DMSO. Positive control wells contain all components of the reaction with 2% DMSO. Blank wells contain all components of the reaction, with a reference inhibitor replacing the compound of interest. Each kinase is assigned a standard assay concentration of ATP within 20 μM of its apparent Km. Compounds were screened at 1 μM in duplicate or tested at 10 concentrations at half log dilution starting from 10 μM in singlicate. Dose response curves were fitted with four parameter logistic curve to obtain IC50 values. […]
(§4) Staurosporine is used as reference for all tested enzymes except for SRPK3 (reference inhibitor: K-252a. Nocardiopsis sp), NEK2 (reference inhibitor: […]), and CK2, CK2α2, MAPK1, MAPK2 (reference inhibitor: PKR Inhibitor). See Table 1 below for additional details.

MAPK2 (h) = biological target: T6, MAPK2 (h) (Homo sapiens, UniProt P28482); assay: Radiometric protein kinase assay (Eurofins); type: biochemical; settings: 40 min; ATP 155 μM; read-out: MAPK2 IC50
T6 construct: purchased Eurofins, Dundee, Scotland
T6 sequence (P28482 whole entry): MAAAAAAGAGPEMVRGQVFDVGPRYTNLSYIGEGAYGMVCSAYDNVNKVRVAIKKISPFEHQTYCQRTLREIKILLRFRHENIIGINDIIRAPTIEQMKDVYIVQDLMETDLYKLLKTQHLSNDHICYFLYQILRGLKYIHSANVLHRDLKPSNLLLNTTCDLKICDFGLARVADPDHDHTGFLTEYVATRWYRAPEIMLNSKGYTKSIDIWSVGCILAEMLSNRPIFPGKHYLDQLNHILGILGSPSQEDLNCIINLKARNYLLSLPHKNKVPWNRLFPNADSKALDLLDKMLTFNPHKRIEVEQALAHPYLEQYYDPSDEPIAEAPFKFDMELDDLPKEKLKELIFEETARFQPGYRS
Description: as §3, §4

DYRK1B (h) = biological target: T7, DYRK1B (h) (Homo sapiens, UniProt Q9Y463); assay: Radiometric protein kinase assay (Eurofins); type: biochemical; settings: ATP 45 μM
T7 construct: purchased Eurofins, Dundee, Scotland
T7 sequence (Q9Y463 whole entry): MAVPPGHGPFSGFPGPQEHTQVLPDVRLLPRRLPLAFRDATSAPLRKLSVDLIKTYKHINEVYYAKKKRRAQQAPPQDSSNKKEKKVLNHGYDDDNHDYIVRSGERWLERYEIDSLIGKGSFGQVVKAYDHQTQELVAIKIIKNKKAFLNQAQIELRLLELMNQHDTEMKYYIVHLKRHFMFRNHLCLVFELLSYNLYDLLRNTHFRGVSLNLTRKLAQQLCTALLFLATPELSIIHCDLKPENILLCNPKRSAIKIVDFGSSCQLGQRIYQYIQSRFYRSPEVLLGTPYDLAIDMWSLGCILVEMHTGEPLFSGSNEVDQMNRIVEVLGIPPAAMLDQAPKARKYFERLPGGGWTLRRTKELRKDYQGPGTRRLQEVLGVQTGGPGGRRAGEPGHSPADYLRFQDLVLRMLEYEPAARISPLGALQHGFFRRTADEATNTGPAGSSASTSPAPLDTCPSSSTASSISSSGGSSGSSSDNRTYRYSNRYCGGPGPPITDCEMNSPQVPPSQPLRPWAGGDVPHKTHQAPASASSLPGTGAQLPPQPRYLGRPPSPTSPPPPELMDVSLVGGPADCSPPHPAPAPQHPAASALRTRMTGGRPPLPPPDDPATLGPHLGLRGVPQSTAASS
Description: as §3, §4

AKT3 = biological target: T8, AKT3 (Homo sapiens, UniProt Q9Y243); assay: Radiometric protein kinase assay (Eurofins); type: biochemical; settings: ATP 45 μM
T8 construct: purchased Eurofins, Dundee, Scotland
T8 sequence (Q9Y243 whole entry): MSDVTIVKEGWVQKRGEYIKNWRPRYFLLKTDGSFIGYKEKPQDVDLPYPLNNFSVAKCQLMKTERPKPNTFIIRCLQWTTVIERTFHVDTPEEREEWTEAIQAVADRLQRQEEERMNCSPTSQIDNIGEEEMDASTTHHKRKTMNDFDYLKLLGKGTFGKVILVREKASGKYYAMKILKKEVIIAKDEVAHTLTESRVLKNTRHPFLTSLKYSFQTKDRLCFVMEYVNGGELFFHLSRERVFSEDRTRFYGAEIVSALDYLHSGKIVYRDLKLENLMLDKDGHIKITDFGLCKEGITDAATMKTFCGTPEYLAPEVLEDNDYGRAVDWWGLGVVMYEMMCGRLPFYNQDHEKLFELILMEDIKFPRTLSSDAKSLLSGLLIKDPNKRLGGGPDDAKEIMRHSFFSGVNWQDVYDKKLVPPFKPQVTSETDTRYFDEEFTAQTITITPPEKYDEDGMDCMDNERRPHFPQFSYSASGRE
Description: as §3, §4

FAK (h) = biological target: T9, FAK (h) (Homo sapiens, UniProt Q05397); assay: Radiometric protein kinase assay (Eurofins); type: biochemical; settings: 40 min; ATP 70 μM; read-out: FAK IC50
T9 construct: purchased Eurofins, Dundee, Scotland
T9 sequence (Q05397 whole entry): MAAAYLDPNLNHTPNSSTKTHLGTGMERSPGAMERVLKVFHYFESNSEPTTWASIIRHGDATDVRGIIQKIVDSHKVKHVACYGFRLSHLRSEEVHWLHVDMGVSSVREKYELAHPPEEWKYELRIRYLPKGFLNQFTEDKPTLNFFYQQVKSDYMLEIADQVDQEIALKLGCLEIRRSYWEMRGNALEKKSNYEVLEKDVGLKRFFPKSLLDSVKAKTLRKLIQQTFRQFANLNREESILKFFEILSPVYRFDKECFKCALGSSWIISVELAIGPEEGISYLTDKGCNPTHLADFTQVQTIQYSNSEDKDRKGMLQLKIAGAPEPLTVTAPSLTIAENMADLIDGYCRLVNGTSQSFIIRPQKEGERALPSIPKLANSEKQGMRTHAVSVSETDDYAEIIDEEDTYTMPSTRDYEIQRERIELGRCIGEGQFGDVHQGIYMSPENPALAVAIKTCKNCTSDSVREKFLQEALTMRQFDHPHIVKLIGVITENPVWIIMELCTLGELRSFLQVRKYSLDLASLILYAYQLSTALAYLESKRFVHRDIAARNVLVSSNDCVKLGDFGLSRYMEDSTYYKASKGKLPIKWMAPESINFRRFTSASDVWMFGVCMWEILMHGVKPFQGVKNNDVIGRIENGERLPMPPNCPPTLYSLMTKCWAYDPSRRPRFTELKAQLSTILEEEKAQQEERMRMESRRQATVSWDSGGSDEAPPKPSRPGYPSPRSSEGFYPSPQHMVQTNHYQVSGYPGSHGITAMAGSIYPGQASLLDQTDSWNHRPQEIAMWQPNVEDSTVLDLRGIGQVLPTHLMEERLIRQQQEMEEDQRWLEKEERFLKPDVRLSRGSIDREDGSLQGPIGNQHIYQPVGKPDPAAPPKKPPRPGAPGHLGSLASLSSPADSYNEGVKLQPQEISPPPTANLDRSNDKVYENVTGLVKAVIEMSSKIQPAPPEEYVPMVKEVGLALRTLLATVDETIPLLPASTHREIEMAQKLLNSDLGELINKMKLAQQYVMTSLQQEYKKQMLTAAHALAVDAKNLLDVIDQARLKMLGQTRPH
Description: as §7

Row | SMILES | Effect on phosphorylation of SR proteins (immunoblot) [1] | Effect on phosphorylation of SF3B1 (immunoblot) (phosphorylation of SF3B1) | Antagonism of the compound's TESLR activity by sudemycinol C (SF3B1) | IC50 (CLK2(h)) | RBM39 alternative splicing (AS) pattern by RT-PCR [2] | inhibition at 1 µM (GSK3β(h)) | inhibition at 1 µM (PYK2 (h)) | MDM2 alternative splicing (AS) pattern by RT-PCR [3] | EC50 [4] | inhibition at 1 µM (GSK3α(h)) | inhibition at 1 µM (MAPK2 (h)) | IC50 (DYRK1B (h)) | inhibition at 1 µM (AKT3; 40 min, read-out: AKT3 IC50) | inhibition at 1 µM (FAK (h)) | inhibition at 1 µM (DYRK1B (h); 40 min, read-out: DYRK1B IC50) | IC50 (AKT3)
1 | CNC(=O)c1nn(C)c2c1C(C)(C)Cc1cnc(Nc3ccc(N4CCN(C)CC4)cc3)nc1-2 [Compound 1, milciclib] | reduced phosphorylation of both SR and SF3B1 proteins significantly | reduced phosphorylation of both SR and SF3B1 proteins significantly | did not antagonize | 1 nM | transcript at 673 bp showing the greatest abundance | < 50% | < 50% | AS isoform of 785 bp was dominant | 9190 nM | < 50% | < 50% | 5 nM | < 50% | < 50% |  | 
2 | Cc1nc(Nc2[nH]nc3c2CN(C(=O)N[C@H](CN(C)C)c2ccccc2)C3(C)C)c2sccc2n1 [Compound 2, PF-3758309] | reduced phosphorylation of both SR and SF3B1 proteins significantly | reduced phosphorylation of both SR and SF3B1 proteins significantly | did not antagonize | 6 nM | transcript at 673 bp showing the greatest abundance | < 50% | < 50% | AS isoform of 785 bp was dominant | 3440 nM | < 50% | < 50% |  |  | < 50% | < 50% | 54 nM
